The target of one data set is Cytochrome P450 2C9 (Homo sapiens, UniProt P11712).
A short description of data set [1]: Luminescence Cell-Based Dose Retest to Confirm Inhibitors of Cancer Stem Cells. [Related pubchem assays (depositor defined):AID2717, AID2721]. Type of data set: functional. As to conditions: Homo sapiens.
Data set [2] has as its target T1, Ubiquitin-conjugating enzyme E2 N (Homo sapiens, UniProt P61088).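 Note: Dose-response confirmation in a TR-FRET assay detecting UBC13-driven polyubiquitin chain formation, inhibition measured.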
T1 sequence (P61088 whole entry): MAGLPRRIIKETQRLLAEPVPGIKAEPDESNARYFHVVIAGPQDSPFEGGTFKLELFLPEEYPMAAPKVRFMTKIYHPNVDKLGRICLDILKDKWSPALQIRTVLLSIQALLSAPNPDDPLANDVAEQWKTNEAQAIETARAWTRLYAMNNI
Format: functional.

Data set [3] is described as follows: cells. Format: functional, cell-based.
A short description of data set [4]: cells. Type of data set: functional, cell-based. This is another data set of the same source.
Another data set has as its target Cytochrome P450 2C19 (Homo sapiens, UniProt P33261). The data set can be described thus: Cytochrome panel assay with activity outcomes. Panel member name: p450-cyp2c19 Compounds with AC50 equal or less than 10 uM are considered active. Format: functional. As to conditions: read-out: AC50.
Data set [5] concerns Streptococcus sp. 'group A'. The data set can be described thus: growth inhibition of control SK(-) GAS strain, dose response, counter-screen for streptokinase expression inhibitor project, luminescence, kanamycin, BacTiterGlo, confirmation (AID 1900). Format: functional, organism-based.
The next data set has as its target T2, Streptokinase A (Streptococcus pyogenes serotype M1, UniProt P10520).
T2 sequence (P10520 whole entry): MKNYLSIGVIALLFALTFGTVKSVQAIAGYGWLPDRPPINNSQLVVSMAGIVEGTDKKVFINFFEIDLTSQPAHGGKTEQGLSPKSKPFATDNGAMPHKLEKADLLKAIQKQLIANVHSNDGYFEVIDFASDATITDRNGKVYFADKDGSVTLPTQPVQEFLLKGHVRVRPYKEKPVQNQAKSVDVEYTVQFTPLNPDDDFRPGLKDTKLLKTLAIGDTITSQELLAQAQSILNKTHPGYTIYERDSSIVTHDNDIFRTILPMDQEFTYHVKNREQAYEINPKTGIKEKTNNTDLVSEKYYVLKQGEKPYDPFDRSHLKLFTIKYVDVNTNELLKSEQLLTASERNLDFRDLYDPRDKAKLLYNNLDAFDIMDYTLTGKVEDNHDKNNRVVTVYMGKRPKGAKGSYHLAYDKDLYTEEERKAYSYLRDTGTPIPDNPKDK
As to the kind of experiment: S. pyogenes streptokinase expression inhibitors, potency, dose response, plasminogen activation absorbance, OD405 (AID 1914).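 Note: secreted streptokinase activity via plasminogen activation per viability signal from cell pellet.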 Type of data set: functional, Streptococcus pyogenes M1 GAS.

Another data set has as its system Streptococcus. The data set can be described thus: Group A Streptococcus viability loss, dose response, counter-screen for streptokinase expression inhibitor project, luminescence, BacTiterGlo (AID 1915).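 Note: potency for reduction of bacterial viability or growth.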 Type of data set: functional, organism-based.
Another data set addresses T3, Protein RecA (Mycobacterium tuberculosis, UniProt P9WHJ3).
T3 sequence (P9WHJ3 whole entry): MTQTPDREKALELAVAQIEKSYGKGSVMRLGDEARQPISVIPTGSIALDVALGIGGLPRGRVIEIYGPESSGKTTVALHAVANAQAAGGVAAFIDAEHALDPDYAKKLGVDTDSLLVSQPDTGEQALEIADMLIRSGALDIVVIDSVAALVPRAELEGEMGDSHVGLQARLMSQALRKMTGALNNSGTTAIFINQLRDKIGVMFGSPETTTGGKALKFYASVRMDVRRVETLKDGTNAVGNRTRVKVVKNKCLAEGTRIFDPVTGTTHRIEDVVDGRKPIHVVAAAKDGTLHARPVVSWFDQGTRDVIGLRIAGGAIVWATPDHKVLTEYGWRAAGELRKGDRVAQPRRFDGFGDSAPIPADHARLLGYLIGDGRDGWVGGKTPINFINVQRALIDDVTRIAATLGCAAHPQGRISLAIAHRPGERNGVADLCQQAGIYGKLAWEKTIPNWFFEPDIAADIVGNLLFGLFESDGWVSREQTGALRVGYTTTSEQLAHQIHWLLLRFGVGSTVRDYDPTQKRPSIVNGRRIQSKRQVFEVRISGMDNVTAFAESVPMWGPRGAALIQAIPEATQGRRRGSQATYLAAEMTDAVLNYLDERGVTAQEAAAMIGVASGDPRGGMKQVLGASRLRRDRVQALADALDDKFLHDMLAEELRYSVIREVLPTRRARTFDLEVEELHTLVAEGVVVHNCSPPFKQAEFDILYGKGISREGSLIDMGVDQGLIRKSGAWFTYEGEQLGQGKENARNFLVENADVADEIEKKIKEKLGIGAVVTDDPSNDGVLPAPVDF
The data set can be described thus: Fluorescence Cell-Free Homogeneous Dose Retest to Identify Inhibitors of RecA-Intein Splicing Activity. [Related pubchem assays (depositor defined):AID2097, AID2223, AID489010, AID492950]. Format: functional.

For data set [6], the target named is T4, Replicative DNA helicase DnaB (Mycobacterium tuberculosis, UniProt P9WMR3).
T4 sequence (P9WMR3 whole entry): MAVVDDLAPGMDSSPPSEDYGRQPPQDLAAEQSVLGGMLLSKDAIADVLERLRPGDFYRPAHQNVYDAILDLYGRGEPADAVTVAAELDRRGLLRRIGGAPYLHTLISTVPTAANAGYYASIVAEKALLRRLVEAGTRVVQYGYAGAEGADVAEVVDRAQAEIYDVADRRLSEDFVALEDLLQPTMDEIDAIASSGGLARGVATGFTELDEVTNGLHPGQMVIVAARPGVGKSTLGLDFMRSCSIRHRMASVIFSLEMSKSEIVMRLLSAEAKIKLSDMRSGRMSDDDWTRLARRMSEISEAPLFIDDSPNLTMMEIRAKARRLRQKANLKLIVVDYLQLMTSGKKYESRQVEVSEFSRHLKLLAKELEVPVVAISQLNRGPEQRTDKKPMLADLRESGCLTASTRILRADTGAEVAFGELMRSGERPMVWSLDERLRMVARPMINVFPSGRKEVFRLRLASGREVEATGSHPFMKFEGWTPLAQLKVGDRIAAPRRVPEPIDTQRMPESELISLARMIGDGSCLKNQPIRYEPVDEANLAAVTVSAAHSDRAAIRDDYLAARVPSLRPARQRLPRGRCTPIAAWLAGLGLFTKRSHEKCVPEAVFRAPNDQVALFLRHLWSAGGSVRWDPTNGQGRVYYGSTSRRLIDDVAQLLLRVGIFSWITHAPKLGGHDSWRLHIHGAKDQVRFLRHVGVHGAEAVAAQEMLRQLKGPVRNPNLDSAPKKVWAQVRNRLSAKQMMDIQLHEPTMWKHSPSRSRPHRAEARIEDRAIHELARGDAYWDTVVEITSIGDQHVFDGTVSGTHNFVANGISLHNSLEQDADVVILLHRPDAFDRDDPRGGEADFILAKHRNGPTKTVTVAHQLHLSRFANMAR
As to the kind of experiment: DnaB intein splicing inhibitors, dose response, biochemical, cell-free fluorescence (AID 449749). Format: functional.

Data set [7] addresses T5, Mannose-6-phosphate isomerase (Homo sapiens, UniProt P34949).
T5 sequence (P34949 whole entry): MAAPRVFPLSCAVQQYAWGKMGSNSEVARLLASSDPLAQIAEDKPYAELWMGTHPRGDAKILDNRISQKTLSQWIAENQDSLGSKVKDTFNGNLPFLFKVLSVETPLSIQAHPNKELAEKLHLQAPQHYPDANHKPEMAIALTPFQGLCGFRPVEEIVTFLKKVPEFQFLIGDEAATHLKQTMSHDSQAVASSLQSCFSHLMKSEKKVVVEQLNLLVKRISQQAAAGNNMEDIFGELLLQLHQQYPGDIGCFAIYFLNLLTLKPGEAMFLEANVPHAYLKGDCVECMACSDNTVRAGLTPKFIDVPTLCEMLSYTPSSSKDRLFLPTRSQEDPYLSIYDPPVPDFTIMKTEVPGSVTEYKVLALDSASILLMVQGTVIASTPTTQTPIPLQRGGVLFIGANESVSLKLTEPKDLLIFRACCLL
The data set can be described thus: human PMI inhibitors, high substrate, primary screen, biochemical, fluorescence intensity, high mannose 6-phosphate (AID 1220).

The target in data set [8] is Glyceraldehyde-3-phosphate dehydrogenase (Homo sapiens, UniProt P04406).
Sequence of Glyceraldehyde-3-phosphate dehydrogenase (P04406 whole entry): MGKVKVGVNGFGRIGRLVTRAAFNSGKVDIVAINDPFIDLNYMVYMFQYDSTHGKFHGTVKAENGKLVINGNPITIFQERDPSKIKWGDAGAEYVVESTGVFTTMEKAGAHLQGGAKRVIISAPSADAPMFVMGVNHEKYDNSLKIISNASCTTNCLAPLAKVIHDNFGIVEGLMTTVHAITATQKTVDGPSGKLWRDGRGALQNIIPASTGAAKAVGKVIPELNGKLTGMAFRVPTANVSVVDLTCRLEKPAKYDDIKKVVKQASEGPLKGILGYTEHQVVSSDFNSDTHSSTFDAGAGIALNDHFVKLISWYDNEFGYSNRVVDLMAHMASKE
Another data set relates to H4. As to the kind of experiment: Luminescence Cell-Based Dose Response HTS to Identify Activators of 5'UTR Stem-Loop Driven Prion Protein mRNA Translation in H4 Neuroglioblastoma Cells. [Related pubchem assays: 1829 (Project Summary), 1814 (Primary HTS)]. Format: functional. To be noted: Homo sapiens.
The nature of data set [9]: Luminescence Cell-Based Dose Response HTS to Identify Activators of Luciferase Translation or Activity in H4 […] Cells. [Related pubchem assays: 1829 (Project Summary), 1814 (Primary HTS)]. Format: functional.
The target in data set [10] is T6, Heat shock factor protein 1 (Mus musculus, UniProt P38532).
T6 sequence (P38532 whole entry): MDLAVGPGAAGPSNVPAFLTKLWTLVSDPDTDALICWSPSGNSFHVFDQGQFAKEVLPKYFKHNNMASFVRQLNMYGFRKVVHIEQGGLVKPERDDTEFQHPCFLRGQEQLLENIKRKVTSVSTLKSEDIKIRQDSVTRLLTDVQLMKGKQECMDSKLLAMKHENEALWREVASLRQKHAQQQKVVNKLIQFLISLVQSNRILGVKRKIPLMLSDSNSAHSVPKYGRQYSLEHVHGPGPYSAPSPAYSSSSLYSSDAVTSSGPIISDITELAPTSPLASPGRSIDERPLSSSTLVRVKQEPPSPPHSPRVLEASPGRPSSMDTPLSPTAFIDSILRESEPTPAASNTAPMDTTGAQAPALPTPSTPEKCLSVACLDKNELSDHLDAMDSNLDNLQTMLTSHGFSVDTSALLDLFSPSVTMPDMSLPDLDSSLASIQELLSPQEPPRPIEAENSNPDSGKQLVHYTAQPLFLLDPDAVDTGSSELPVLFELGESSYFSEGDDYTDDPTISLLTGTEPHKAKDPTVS
The data set can be described thus: inhibition of MG132-induced HSE-luciferase signal, confirmation, cell-based, NIH3T3, luminescence, dose retest (AID 2382).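 Note: NIH3T3 fibroblasts with HSF1-driven luciferase reporter stressed by proteasome inhibitor MG132; luminescence from HSF1-driven luciferase expression after 8 hours of MG132 stress.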 Format: functional.

The source made the active and inactive calls.

Sequence of Cytochrome P450 2C9 (P11712 whole entry): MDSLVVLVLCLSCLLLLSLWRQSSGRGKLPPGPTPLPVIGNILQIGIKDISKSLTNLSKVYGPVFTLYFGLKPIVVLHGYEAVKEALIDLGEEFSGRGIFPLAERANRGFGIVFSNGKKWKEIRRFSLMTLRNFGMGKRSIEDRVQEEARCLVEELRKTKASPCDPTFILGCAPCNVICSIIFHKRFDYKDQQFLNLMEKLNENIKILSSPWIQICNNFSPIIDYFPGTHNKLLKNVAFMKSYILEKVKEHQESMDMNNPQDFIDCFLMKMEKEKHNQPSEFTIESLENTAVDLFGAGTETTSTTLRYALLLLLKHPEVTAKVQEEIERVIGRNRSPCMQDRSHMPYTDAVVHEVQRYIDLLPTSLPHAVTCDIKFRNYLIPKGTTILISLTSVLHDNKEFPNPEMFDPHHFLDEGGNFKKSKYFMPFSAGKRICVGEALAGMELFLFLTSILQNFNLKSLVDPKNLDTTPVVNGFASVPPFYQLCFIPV
Sequence of Cytochrome P450 2C19 (P33261 whole entry): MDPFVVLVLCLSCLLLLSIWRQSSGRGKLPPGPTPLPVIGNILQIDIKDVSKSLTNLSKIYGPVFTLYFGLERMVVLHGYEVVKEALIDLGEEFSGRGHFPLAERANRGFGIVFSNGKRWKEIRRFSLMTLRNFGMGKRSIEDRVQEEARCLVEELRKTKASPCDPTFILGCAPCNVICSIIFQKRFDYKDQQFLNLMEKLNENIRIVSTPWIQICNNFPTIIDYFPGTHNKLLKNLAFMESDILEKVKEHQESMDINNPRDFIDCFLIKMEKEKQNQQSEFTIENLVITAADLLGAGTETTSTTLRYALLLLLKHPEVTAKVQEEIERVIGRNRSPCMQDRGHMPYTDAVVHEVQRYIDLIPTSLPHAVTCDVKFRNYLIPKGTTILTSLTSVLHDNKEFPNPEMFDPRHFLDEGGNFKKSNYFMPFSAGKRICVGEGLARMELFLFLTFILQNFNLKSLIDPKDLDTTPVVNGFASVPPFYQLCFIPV

In the case of `O=C(Cc1c[nH]c2ccccc12)OCC(=O)c1ccccc1`, at Cytochrome P450 2C9, the AC50 entry is given as “inconclusive”.
In the case of `Cc1cc(N2CCN(C)CC2)nc2ccc(NC(=S)N3CCN(c4ccc(F)cc4)CC3)cc12`, the half-maximal activity concentration (AC50) in data set [1] is 5.34 µM (active). The IC50 in [2] was > 20 µM (inactive).
Take `NS(=O)(=O)c1ccc(NC(=O)c2ccc(CSc3ccccc3)o2)cc1`: the EC50 in “cells [3]” and in the data set “cells [4]” was > 350 µM (not active) in each case.
With `COC(=O)Nc1ccc(=O)n(Cc2c(Cl)cccc2Cl)c1`, the EC50 in the data set “cells [3]” and in the data set “cells [4]” was > 350 µM (not active) each time.
For `COc1ccc(OC)c(CNC(=O)C2CCCN(S(=O)(=O)N3CCC(C)CC3)C2)c1` (stereo not drawn), the concentration for a half-maximal effect (EC50) in “cells [3]” and in “cells [4]” was > 350 µM (not active) throughout.
On to `Cc1cnc(CNc2ncnc3ccc(-c4ccccc4CN(C)C)cc23)cn1`, for which the results for the AC50 at Cytochrome P450 2C19 and at Cytochrome P450 2C9 were 31.6 µM (inconclusive) and “inconclusive”, respectively.
Regarding `CN1c2ccccc2C(C)(C)C12C=Nc1c(ccc3ccccc13)O2` (stereo not drawn), the EC50 in [5] was 3.92 µM (active); on Streptokinase A it was 24 µM (active); in the data set with Streptococcus, > 150 µM (not active); at Protein RecA, 14.4 µM (active). Moreover, the AC50 in [6] was 32.4 µM (active). Moreover, the IC50 in [7] was > 50 µM (not active).
`COc1ccc(S(=O)(=O)Nc2cccnc2)c(OC)c1`: in data set [8], the IC50 is reported as > 100 µM (not active).
Turning to `CN(C)C1=C(Cl)C(=O)N(c2ccc(C(F)(F)F)cc2)C1=O`, the IC50 in data set [8] is > 50 µM (inconclusive).
In the case of `CCOC(=O)N1CCN(C(=O)CN(C)S(=O)(=O)c2ccc3c(c2)C(C)(C)C(=O)N3C)CC1`, the values for the half-maximal activity concentration (AC50) on Cytochrome P450 2C19 and at Cytochrome P450 2C9 were 3.16 µM (inconclusive) and “inconclusive”, respectively.
`Cc1ccc(C)c(NC(=O)CN(C)C(=O)Cc2coc3cc(C)c(C)cc23)c1`: the EC50 in “cells [3]” and in “cells [4]” was > 350 µM (not active) throughout.
For `NC[C@H](Cc1ccccc1)NCCc1cc(C(F)(F)F)cc(C(F)(F)F)c1`, the IC50 in data set [2] was > 20 µM (inactive).
`Cc1cc(/C=N/N2CCN(C)CC2)c(C)n1-c1ccc(Cl)cc1`: the EC50 in the data set “cells [3]” and in the data set “cells [4]” was > 350 µM (not active) each time.
For the compound `CN(C)/N=C/C=C1\CCC/C(=C/c2cccs2)C1=O`, the EC50 in the data set “cells [3]” is 5.27 µM (active); in the data set on H4, > 120 µM (not active); in [9], 0.452 µM (active); in the data set “cells [4]”, > 350 µM (not active).
Regarding `O=C(NCCCCO)c1cc(-c2ccc(Cl)cc2Cl)n[nH]1`, the IC50 in data set [8] is > 10 µM (inconclusive).
Turning to `Cn1nc(N)c2c(-c3ccccc3)c(C#N)c(N)nc21`, the EC50 in data set [10] is given as > 195 µM (not active). Moreover, the IC50 in [2] was > 20 µM (inactive).

For the origin of these results see ChEMBL document CHEMBL1201862, “PubChem BioAssay data set” (2004).
